Values joined by “and” are separate entries in the source; they are usually repeats but may differ in a detail not shown here. Identical values can stand only once.
Tests used:
[1] = biological target: T1, modified sfPFK-M enzyme (47 kDa fragment) (Homo sapiens, UniProt P08237); assay: PFK1 enzymatic assay, modified sfPFK-M; type: biochemical
T1 sequence (P08237 2-390 limits assumed): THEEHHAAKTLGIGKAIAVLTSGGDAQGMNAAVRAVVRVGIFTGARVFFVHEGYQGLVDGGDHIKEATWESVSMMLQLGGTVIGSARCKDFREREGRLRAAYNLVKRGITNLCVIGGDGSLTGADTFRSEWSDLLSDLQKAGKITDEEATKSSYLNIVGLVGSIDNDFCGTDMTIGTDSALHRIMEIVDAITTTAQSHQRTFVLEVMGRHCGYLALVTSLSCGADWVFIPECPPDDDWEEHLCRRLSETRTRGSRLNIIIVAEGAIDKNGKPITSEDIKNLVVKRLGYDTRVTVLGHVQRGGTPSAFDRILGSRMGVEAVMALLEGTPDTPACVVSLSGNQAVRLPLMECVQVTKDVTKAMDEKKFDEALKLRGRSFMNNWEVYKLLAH
Experimental: (§1) To evaluate the ability of selected compounds to suppress the activities of the recombinant human native and modified PFK-M and PFK-L enzymes, they were constructed in yeast S. cerevisiae as a host organism (S1 Text), partially purified, and their activities assayed (S2 Text).
(§2) S2 Text: PFK1 Enzymatic assays.
(§3) PFK1 activities were determined spectrophotometrically at 340 nm (Lambda 25 UV/VIS spectrophotometer, Perkin Elmer) as reported previously using a coupled reaction system. Unless otherwise stated, in a final volume of 1 mL, the assay mixture contained 50 mM HEPES buffer (pH 7.8), 1 mM DTE, 100 mM KCl, 5 mM MgCl2, 0.2 mM NADH, 0,025 to 2 mM F6P, 10% v/v polyethylene glycol (PEG 6000), 0.9 U/mL aldolase (Sigma-Aldrich, Steinheim, Germany), 15 U/mL triosephosphate isomerase, and 15 U/mL glycerol-3-phosphate dehydrogenase (Sigma-Aldrich, Steinheim, Germany). Before use, the auxiliary enzymes were dialyzed overnight at 4 °C against 50 mM HEPES buffer (pH 7.8) containing 1 mM DTE, with one buffer […]
(§4) induce inhibition. The enzyme concentration used in the kinetic assay was 0.2 µg/mL. […] Total protein concentrations of the samples were determined using a Bio-Rad protein assay (Bio-Rad, Hercules, Ca) with bovine y-globulin […]

[2] = biological target: T2, native nPFK-M enzyme (85 kDa) (Homo sapiens, UniProt P08237); assay: PFK1 enzymatic assay, native nPFK-M; type: biochemical
T2 construct: made in house; host or cells: Saccharomyces cerevisiae pfk-null HD-114-8A
T2 sequence (P08237 1-780): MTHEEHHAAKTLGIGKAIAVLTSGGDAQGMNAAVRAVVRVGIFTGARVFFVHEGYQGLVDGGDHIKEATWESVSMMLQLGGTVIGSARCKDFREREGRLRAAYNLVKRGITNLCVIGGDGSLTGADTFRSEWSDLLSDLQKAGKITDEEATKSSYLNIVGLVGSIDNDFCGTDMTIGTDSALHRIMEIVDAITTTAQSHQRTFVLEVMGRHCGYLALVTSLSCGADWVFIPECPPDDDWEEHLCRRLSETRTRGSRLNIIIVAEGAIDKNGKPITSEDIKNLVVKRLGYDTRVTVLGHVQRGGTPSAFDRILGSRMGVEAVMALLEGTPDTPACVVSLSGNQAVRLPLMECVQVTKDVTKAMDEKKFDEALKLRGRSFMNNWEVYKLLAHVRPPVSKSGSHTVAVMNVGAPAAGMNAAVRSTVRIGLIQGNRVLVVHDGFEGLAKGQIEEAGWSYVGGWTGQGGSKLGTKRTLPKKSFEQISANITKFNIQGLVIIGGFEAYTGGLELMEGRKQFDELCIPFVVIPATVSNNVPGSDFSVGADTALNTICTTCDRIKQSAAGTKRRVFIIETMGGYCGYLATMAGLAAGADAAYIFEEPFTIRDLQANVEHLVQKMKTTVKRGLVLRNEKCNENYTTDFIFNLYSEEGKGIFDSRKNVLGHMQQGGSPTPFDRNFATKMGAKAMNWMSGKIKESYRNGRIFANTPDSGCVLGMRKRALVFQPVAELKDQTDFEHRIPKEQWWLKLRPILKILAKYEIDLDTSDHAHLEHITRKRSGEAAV
Experimental: as §1, §2, §3, §4

Jurkat cells [3] = assay: Cytostatic assay (XTT cell proliferation); type: cell-based; conditions: 20-80 µM
Experimental: (§5) Untreated cells and cells treated with different concentrations of inhibitors were incubated for 72 hours before alive cellular biomass was determined according to the manufacturer’s instructions.
To investigate possible cytostatic effects of the inhibitors, the total cell number of Jurkat cells treated with vehicles of different concentrations of inhibitors was determined immediately after incubation.

Caco-2 cells [4] = type: cell-based; conditions: 72 hours
Experimental: (§6) As a negative control, 100 µL Triton X-100 was added to wells containing 1mL medium with cells. For the survival evaluation in the dose-dependent tests, the measurements were conducted at the end of incubation at 72 hours of growth in the medium.

COLO 829 cells [5] = type: cell-based; conditions: 72 hours
Experimental: as §6

MDA-MB-231 cells [6] = type: cell-based; conditions: 72 hours
Experimental: as §6

Jurkat cells [7] = type: cell-based
Experimental: as §6
The potential cytotoxicity of the inhibitors was also assessed. At the end of the incubation, the average percentage of dead cells was determined in the presence of a vehicle and a 80 µM concentration of each inhibitor.

Caco-2 cells [8] = assay: Cytostatic assay (XTT cell proliferation); type: cell-based; conditions: up to 80 µM, 72 hours
Experimental: as §5

COLO 829 cells [9] = assay: Cytostatic assay (XTT cell proliferation); type: cell-based; conditions: up to 80 µM, 72 hours
Experimental: as §5

MDA-MB-231 cells [10] = assay: Cytostatic assay (XTT cell proliferation); type: cell-based; conditions: up to 80 µM, 72 hours
Experimental: as §5

[11] = test system: all tumorigenic cell lines tested; assay: ROS/SOX reduction by sequential re-insertion, statement for all lines; type: cell-based; conditions: sequentially re-added every 24 hours
Experimental: After 78 hours cells were washed by centrifugation, and an aliquot of 1 × 10^5 cells was placed into 1 mL of phenol red-free IMDM medium (Thermo Fisher Scientific, Waltham, MA, USA) supplemented with 10% of FBS. The cells were incubated for an additional 3 hours before measurement.
For detecting ROS and SOX levels in the cells, 100 µL of medium was washed with PBS by standard centrifugation protocol and then placed into a well on the 96-well black wall/clear bottom plate. To each well 100 µL ROS detection reagent (Green) and SOX detection reagent (Orange) were added as specified in the Cellular ROS/SOX Detection Assay Kit (ab139476 Abcam, Cambridge, UK). For measuring superoxide Cellular Superoxide Detection Assay Kit (ab139477 Abcam, Cambridge, UK) was used that contains “Orange” but not the “Green” reagent.

COLO 829 cells [12] = assay: Dose-dependent inhibition of lactate formation; type: cell-based; conditions: 20, 40, 60, 80 µM, up to 72 hours
Caco-2 cells [13] = assay: Dose-dependent inhibition of lactate formation; type: cell-based; conditions: 20, 40, 60, 80 µM, up to 72 hours
Experimental: (§7) If not specified differently, the tumorigenic cells were plated in the RPMI 1640 GlutaMax medium (Thermo Fisher Scientific, Waltham, MA, USA) supplemented with 10% FBS at the concentration of 5 × 10^5 cells per mL. The cells were incubated at 37 °C and 5% CO2. Different concentrations of specific inhibitors were added to the medium at the beginning of inoculation. An adequate amount of DMSO used in the solution with the specified concentrations of compounds was added to the vehicle.
(§8) For measuring lactate concentrations in the medium, 20 µL samples were taken at specified time intervals, centrifuged at 1200 rpm for 5 minutes at 4 °C and 15 µL supernatants were preserved at 4 °C until analyzed.
(§9) Lactate levels were assessed enzymatically using an L-Lactic acid assay kit (K-LATE, Megazyme, Bray, Ireland) and measured according to the manufacturer’s instructions.
(§10) The lactate formation, growth yield, and survival under normal and inhibitory conditions of four tumorigenic cell lines were investigated. […] Cells were grown in the presence of vehicles or inhibitors at different concentrations (20, 40, 60, and 80 µM), and lactate levels in the supernatant were determined sequentially.

MDA-MB-231 cells [14] = assay: Dose-dependent inhibition of lactate formation; type: cell-based; conditions: 20, 40, 60, 80 µM, up to 72 hours
Experimental: as §7, §8, §9, §10

Jurkat cells [15] = assay: Dose-dependent inhibition of lactate formation; type: cell-based; conditions: for Stability of the compounds during incubation, indicated by increasing lactate formation in later phases: Jurkat cell culture medium, after 24 hours up to 72 hours; for Lactate formation in the first 24 hours: Jurkat cells, 20, 40, 60, 80 µM, regardless of concentration, later dose-dependent lactate production up to 72 hours
Experimental: as §7, §8, §9, §10

[16] = biological target: T3, modified sfPFK-L enzyme (70 kDa fragment) (Homo sapiens, UniProt P17858); assay: PFK1 enzymatic assay, modified sfPFK-L; type: biochemical
T3 construct: 45.920 Da [2] and short PFK-L of 69.942 Da fragments [3], respectively; made in house; host or cells: Saccharomyces cerevisiae pfk-null HD-114-8A
T3 sequence (P17858 2-648): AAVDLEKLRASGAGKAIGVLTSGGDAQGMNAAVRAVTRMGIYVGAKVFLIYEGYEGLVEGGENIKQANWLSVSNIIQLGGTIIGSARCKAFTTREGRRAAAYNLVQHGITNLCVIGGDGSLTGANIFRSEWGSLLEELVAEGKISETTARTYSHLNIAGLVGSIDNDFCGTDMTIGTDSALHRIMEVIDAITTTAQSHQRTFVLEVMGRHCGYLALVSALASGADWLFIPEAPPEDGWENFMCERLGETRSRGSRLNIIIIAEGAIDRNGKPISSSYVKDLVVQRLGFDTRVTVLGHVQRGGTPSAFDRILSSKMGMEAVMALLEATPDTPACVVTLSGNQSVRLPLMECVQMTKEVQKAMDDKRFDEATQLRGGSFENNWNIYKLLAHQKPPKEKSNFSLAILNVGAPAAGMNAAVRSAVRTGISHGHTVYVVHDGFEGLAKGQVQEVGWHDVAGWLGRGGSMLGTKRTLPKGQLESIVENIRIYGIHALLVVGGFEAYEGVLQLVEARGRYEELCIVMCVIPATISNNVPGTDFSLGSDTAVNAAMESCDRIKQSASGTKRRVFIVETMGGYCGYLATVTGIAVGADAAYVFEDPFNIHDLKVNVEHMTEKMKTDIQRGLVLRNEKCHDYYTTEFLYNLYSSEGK
Experimental: as §1, §2, §3, §4

[17] = 10 µM sequentially added every 24 hours

Compound: O=C(CSc1nnc(-c2ccc3c(c2)OCO3)o1)Nc1ccon1 [cmpd No. 3, 2-[(5-benzo[1,3]dioxol-5-yl-1,3,4-oxadiazol-2-yl)sulfanyl]-N-isoxazol-3-yl-acetamide]
- IC50 [1]: 15 µM and ~15 µM
- IC50 [2]: 18 µM

Compound: COc1ccc(-c2cccc(-c3ccn(Cc4noc(C)n4)n3)c2)nn1 [cmpd No. 9, 3-methoxy-6-(3-{1-[(5-methyl-1,2,4-oxadiazol-3-yl)methyl]-1H-pyrazol-3-yl}phenyl)pyridazine]
- Cytostatic effect (cells counted after 72 hours of incubation) (Jurkat cells [3]): no significant cytostatic
- Average percentage of dead cells, sequentially treated (Caco-2 cells [4]; [17]): 4.03 ± 0.32%
- Average percentage of dead cells (Caco-2 cells [4]; dose-dependent test, different concentrations of inhibitors): 3.33 ± 0.14%
- Average percentage of dead cells, sequentially treated (COLO 829 cells [5]; [17]): 2.84 ± 0.19%
- Average percentage of dead cells (COLO 829 cells [5]; dose-dependent test): 3.65 ± 0.78%
- Average percentage of dead cells, sequentially treated (MDA-MB-231 cells [6]; [17]): 2.35 ± 0.09%
- Average percentage of dead cells (MDA-MB-231 cells [6]; dose-dependent test): 6.59 ± 0.29%
- Average percentage of dead cells (Jurkat cells [7]; 80 µM, end of incubation 72 hours): 3.74 ± 0.3%
- Average percentage of dead cells, sequentially treated (Jurkat cells [7]; 10 µ L sequentially added every 24 hours, 72 hours): 3.24 ± 0.25%
- Cytostatic effect (total number of cells at the end of incubation) (Caco-2 cells [8]): no adverse effects on cell growth
- Cytostatic effect (total cell number compared to the control) (COLO 829 cells [9]): No significant differences in the total cell number
- Cytostatic effect (total cell number) (MDA-MB-231 cells [10]): No significant differences in total cell number
- Reduction of ROS formation ([11]; 5 µM): approximately 50%
- Reduction of ROS formation ([11]; 10 and 20 µM): approximately 65%
- Lactate formation, dose-dependent test (COLO 829 cells [12]): Apparent dose-dependent effects of suppressed lactate formation
- Lactate accumulation, dose-dependent test (Caco-2 cells [13]): dose-dependent reduction in lactate accumulation
- Lactate suppression, dose-dependent test (MDA-MB-231 cells [14]): Dose-dependent effects
- Stability of the compounds during incubation, indicated by increasing lactate formation in later phases (Jurkat cells [15]): instability
- Lactate formation in the first 24 hours (Jurkat cells [15]): no or only small amounts of lactate

Compound: Nc1nnc(-c2cc(-c3ccc(O)cc3)on2)o1 [cmpd No. 30, 4-[3-(5-amino-1,3,4-oxadiazol-2-yl)isoxazol-5-yl]phenol]
- IC50 [16]: 8 µM
- Lactate accumulation, dose-dependent test (Caco-2 cells [13]): dose-dependent reduction in lactate accumulation
- Lactate suppression, dose-dependent test (MDA-MB-231 cells [14]): Dose-dependent effects
- Stability of the compounds during incubation, indicated by increasing lactate formation in later phases (Jurkat cells [15]): instability
- Lactate formation in the first 24 hours (Jurkat cells [15]): no or only small amounts of lactate

Source: publication PMC12094722, “Small-molecule inhibitors of 6-phosphofructo-1-kinase simultaneously suppress lactate and superoxide generation in cancer cells” (PLOS One, 2025)
